From PMC8252718, “carba Nicotinamide Adenine Dinucleotide Phosphate: Robust Cofactor for Redox Biocatalysis” (Angewandte Chemie (International Ed. in English), 2021)

Columns and labels:
Assay in all cases: activity assay
Format in all cases: biochemical
AspRedAm = target: T1, AspRedAm (Aspergillus oryzae, UniProt Q2TW47); conditions: 100 mM Tris-HCl pH 8.2, 5 mM hexanal, 10 mM amine, 1 mM cofactor, 30 °C
T1 construct: gene AO090010000708; details only in supplement
T1 sequence (Q2TW47 1-295): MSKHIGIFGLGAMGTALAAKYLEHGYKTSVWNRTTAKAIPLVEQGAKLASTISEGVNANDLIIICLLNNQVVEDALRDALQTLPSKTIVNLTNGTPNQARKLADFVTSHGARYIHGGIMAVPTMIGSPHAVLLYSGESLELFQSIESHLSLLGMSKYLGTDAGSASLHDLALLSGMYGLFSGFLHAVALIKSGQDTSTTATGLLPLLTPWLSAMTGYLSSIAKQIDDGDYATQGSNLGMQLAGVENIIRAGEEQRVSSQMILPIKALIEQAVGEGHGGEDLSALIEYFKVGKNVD

TsER = target: T2, TsER (Thermus scotoductus, UniProt B0JDW3)
T2 construct: gene chrR; details only in supplement

CHMO = target: T3, CHMO (Acinetobacter johnsonii, UniProt P12015)
T3 construct: gene chnB; details only in supplement
T3 sequence (P12015 whole entry): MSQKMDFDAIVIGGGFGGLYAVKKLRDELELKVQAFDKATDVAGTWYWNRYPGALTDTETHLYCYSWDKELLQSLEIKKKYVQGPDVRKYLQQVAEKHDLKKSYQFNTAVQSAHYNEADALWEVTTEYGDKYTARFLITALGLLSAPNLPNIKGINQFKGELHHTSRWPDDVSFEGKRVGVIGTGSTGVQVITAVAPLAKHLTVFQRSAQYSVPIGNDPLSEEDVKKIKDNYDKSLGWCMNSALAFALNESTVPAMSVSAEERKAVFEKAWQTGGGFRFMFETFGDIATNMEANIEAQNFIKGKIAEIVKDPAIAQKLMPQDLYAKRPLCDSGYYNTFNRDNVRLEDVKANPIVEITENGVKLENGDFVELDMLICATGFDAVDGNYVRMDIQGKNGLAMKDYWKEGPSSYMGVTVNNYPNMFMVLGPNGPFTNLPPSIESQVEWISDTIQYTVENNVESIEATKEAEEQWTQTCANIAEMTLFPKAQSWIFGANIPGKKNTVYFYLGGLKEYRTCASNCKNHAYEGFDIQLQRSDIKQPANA

NC(=O)C1=CN([C@@H]2C[C@H](COP(=O)(O)OP(=O)(O)OC[C@H]3O[C@@H](n4cnc5c(N)ncnc54)[C@H](OP(=O)(O)O)[C@@H]3O)[C@@H](O)[C@H]2O)C=CC1 [carba-NADPH]
activity assay (AspRedAm): Both gave comparable results with the natural and carba cofactor
activity assay (TsER): enoate reductase (TsER from Thermus scotoductus)
activity assay (CHMO): two Baeyer‐Villiger‐monoxygenases (CHMO and HAPMO)
